According to ChEMBL document CHEMBL1146265, “Synthesis and structure-activity studies of antofine analogues as potential anticancer agents” (Bioorg Med Chem Lett, 2007):

What was measured:
Format in all cases: functional, cell-based
HCT-116 = experiment: Cytotoxicity against human HCT116 cells by SRB assay
HT-1080 = experiment: Cytotoxicity against human HT1080 cells by SRB assay
A549 = experiment: Cytotoxicity against human A549 cells by SRB assay

COc1ccc2c3c(c4cc(O)c(OC)cc4c2c1)CC1CCCN1C3 (stereo not given)
IC50 (HCT-116): 68.3 nM | IC50 (HT-1080): 72.6 nM | IC50 (A549): > 100 nM

COc1ccc2c3c(c4cc(OC)c(O)cc4c2c1)CC1CCCN1C3 (stereo not given)
IC50 (HCT-116): 21.4 nM | IC50 (HT-1080): 19.8 nM | IC50 (A549): 49.8 nM

COc1ccc2c3c(c4cc5c(cc4c2c1)OCO5)CC1CCCN1C3 (stereo not given)
IC50 (HCT-116): 364 nM | IC50 (HT-1080): 453 nM | IC50 (A549): 747 nM

COc1ccc2c3c(c4cc(OC(C)C)c(OC)cc4c2c1)CC1CCCN1C3 (stereo not given)
IC50 (HCT-116): 783 nM | IC50 (HT-1080): > 1000 nM | IC50 (A549): > 1000 nM

COc1ccc2c3c(c4cc(OC)c(OC)cc4c2c1)CC1CCCN1C3 (stereo not drawn) [(+/-)-ANTOFINE]
IC50 (HCT-116): 29.4 nM | IC50 (HT-1080): 27.5 nM | IC50 (A549): 25.1 nM

COc1cc2c3c(c4ccc(OC(C)C)cc4c2cc1OC)CN1CCCC1C3 (stereo not given)
IC50 (HCT-116): 19.2 nM | IC50 (HT-1080): 23.6 nM | IC50 (A549): 40.5 nM

COc1ccc2c3c(c4cc(OC)c(OC(C)C)cc4c2c1)CC1CCCN1C3 (stereo not given)
IC50 (HCT-116): 24.7 nM | IC50 (HT-1080): 37.4 nM | IC50 (A549): 53.9 nM

COc1cc2c3c(c4ccc(O)cc4c2cc1OC)CN1CCCC1C3 (stereo not given)
IC50 (HCT-116): 1.1 nM | IC50 (HT-1080): 1.1 nM | IC50 (A549): 1.4 nM

COc1cc2c3c(c4ccccc4c2cc1OC)CN1CCCC1C3 (stereo not given)
IC50 (HCT-116): 49.3 nM | IC50 (HT-1080): 59.1 nM | IC50 (A549): > 100 nM

COc1ccc2c3c(c4cc(OC)c(OC)cc4c2c1)C[C@H]1CCCN1C3 [(-)-ANTOFINE]
IC50 (HCT-116): 9.9 nM | IC50 (HT-1080): 9.6 nM | IC50 (A549): 10.4 nM
